The record followed here is patent US11584749B2, “Phosphor-tetrazine compound and use thereof” (Spark Biopharma, Inc., priority 2018, dated 2023).

SMILES strings stand for the structures. Where only a bound is given, the exact number is not on record here.

Data set [1] in a line: Change in emission properties (quantum yield, excitation/emission maxima, fluorescence amplification) before and after reaction with TCO. To be noted: for fluorescence amplification rate (on/off): before and after reaction with TCO; for fluorescence signal amplification efficiency after the reaction with TCO: long wavelength range, diethylamino group at R1. It counts as physicochemical. On the procedure:
(§1) In this test, the absorption spectrum was measured with a UV-VIS spectrophotometer UV-1650PC (Shimadzu), and the emission spectrum and motion data were measured using a Cary Eclipse Fluorescence spectrophotometer (Varian Associates), and the absolute quantum yield was measured with a QE-2000 (Otsuka Electronics).
The emission spectrum was compared when the maximum fluorescence intensity was reached before and after the reaction of the compound and TCO, and changes in fluorescence of the compounds of Examples 1 to 4 and Comparative Examples 1 to 4 were observed, and the results are shown in Table 1 below.
The emission spectrum was compared when the maximum fluorescence intensity was reached before and after the reaction of the compound and TCO, and changes in fluorescence of the compounds of Examples 1 and 4 and Comparative Examples 3 to 6 were observed, and the results are shown in Table 2 below, FIGS. 3 and 4.

Data set [2] in a line: Second rate constant of the reaction with TCO. It counts as physicochemical. The method, then: as §1

As for `CC(=O)c1ccn2c3c(c(-c4ccc(-c5nnc(C)nn5)cc4)c2c1)CN(CCCNC(=O)OC(C)(C)C)C3=O` [Comparative Example 1, tert-butyl (3-(7-acetyl-9-(4-(6-methyl-1,2,4,5-tetrazin-3-yl)phenyl)-3-oxo-1,3-dihydro-2H-pyrrolo[3,4-b]indolizin-2-yl)propyl)carbamate], in data set [1] (Table 1), the “λem maximum emission wavelength” value is 532 nm, the “λex largest excitation maxima at a given maximum emission wavelength” value (from here on “λex largest excitation maxima”) is 416 nm, the “Φon absolute quantum yield after the reaction with TCO” value (“Φon absolute quantum yield” below) was 0.168 and the “fluorescence amplification rate (on/off)” value is given as 20. Also, in data set [1] (Table 1), the “Φoff absolute quantum yield before the reaction with TCO” value came out at 0.011. Moreover, in data set [2] (Table 1, measured at 20° C.), the “K2 second rate constant value” is 21 m^−1s^−1.
Consider `CC(=O)c1ccn2c3c(c(-c4ccc(C(=O)NCc5ccc(-c6nnc(C)nn6)cc5)cc4)c2c1)CN(CCCNC(=O)OC(C)(C)C)C3=O` [Comparative Example 2, tert-butyl (3-(7-acetyl-9-(4-((4-(6-methyl-1,2,4,5-tetrazin-3-yl)benzyl)carbamoyl)phenyl)-3-oxo-1,3-dihydro-2H-pyrrolo[3,4-b]indolizin-2-yl)propyl)carbamate], for which, in data set [1] (Table 1), the “λem maximum emission wavelength” value is on record as 522 nm, the “λex largest excitation maxima” value was found to be 401 nm, the “Φon absolute quantum yield” value is listed as 0.583 and the “fluorescence amplification rate (on/off)” value was determined as 14. Moreover, in data set [1] (Table 1), the “Φoff absolute quantum yield before the reaction with TCO” value is 0.042. Also, the “K2 second rate constant value” in data set [2] (Table 1, measured at 20° C.) was found to be 15 m^−1s^−1.
Turning to `Cc1nnc(-c2ccc(CNC(=O)c3ccn4c5c(c(-c6ccccc6)c4c3)CN(CCCNC(=O)OC(C)(C)C)C5=O)cc2)nn1` [Comparative Example 3, tert-butyl (3-(7-((4-(6-methyl-1,2,4,5-tetrazin-3-yl)benzyl)carbamoyl)-3-oxo-9-phenyl-1,3-dihydro-2H-pyrrolo[3,4-b]indolizin-2-yl)propyl)carbamate], in data set [1] (Table 1), the “λem maximum emission wavelength” value is listed as 493 nm, the “λex largest excitation maxima” value is listed as 375 nm, the “Φon absolute quantum yield” value turned out to be 0.616 and the “fluorescence amplification rate (on/off)” value was determined as 67. Further, in data set [1] (Table 1), the “Φoff absolute quantum yield before the reaction with TCO” value is recorded as 0.012. In data set [1] (Table 2), the “λem maximum emission wavelength” value was found to be 493 nm, the “λex largest excitation maxima” value is 375 nm, the “Φon absolute quantum yield” value came to 0.616 and the “fluorescence amplification rate (on/off)” value is on record as 67. Besides, in data set [1] (Table 2), the “Φoff absolute quantum yield before the reaction with TCO” value is given as 0.012. Also, in data set [2] (Table 1, measured at 20° C.), the “K2 second rate constant value” is on record as 15 m^−1s^−1. Further, the “K2 second rate constant value” in data set [2] (Table 2, measured at 20° C.) was found to be 15 m^−1s^−1.
As for `CC(=O)c1ccn2c3c(c(-c4ccccc4)c2c1)CN(CCCNC(=O)CCC(=O)NCc1ccc(-c2nnc(C)nn2)cc1)C3=O` [Comparative Example 4, N^1-(3-(7-acetyl-3-oxo-9-phenyl-1,3-dihydro-2H-pyrrolo[3,4-b]indolizin-2-yl)propyl)-N^4-(4-(6-methyl-1,2,4,5-tetrazin-3-yl)benzyl)succinimide], in data set [1] (Table 1), the “λem maximum emission wavelength” value is recorded as 530 nm, the “λex largest excitation maxima” value turned out to be 401 nm, the “Φon absolute quantum yield” value is 0.325 and the “fluorescence amplification rate (on/off)” value is reported as 24. Further, in data set [1] (Table 1), the “Φoff absolute quantum yield before the reaction with TCO” value was 0.017. For the same molecule, in data set [1] (Table 2), the “λem maximum emission wavelength” value came to 530 nm, the “λex largest excitation maxima” value came out at 401 nm, the “Φon absolute quantum yield” value is 0.325 and the “fluorescence amplification rate (on/off)” value came to 24. Further, the “Φoff absolute quantum yield before the reaction with TCO” value in data set [1] (Table 2) came out at 0.017. For the same molecule, the “K2 second rate constant value” in data set [2] (Table 1, measured at 20° C.) worked out at 8.5 m^−1s^−1. The “K2 second rate constant value” in data set [2] (Table 2, measured at 20° C.) came out at 8.5 m^−1s^−1.
As to `CCN(CC)c1ccc(-c2c3c(n4ccc(C(=O)NCc5ccc(-c6nnc(C)nn6)cc5)cc24)C(=O)N(CCCNC(=O)OC(C)(C)C)C3)cc1` [Comparative Example 5, tert-butyl (3-(9-(4-(diethylamino)phenyl)-7-((4-(6-methyl-1,2,4,5-tetrazin-3-yl)benzyl)carbamoyl)-3-oxo-1,3-dihydro-2H-pyrrolo[3,4-b]indolizin-2-yl)propyl)carbamate], in data set [1] (Table 2), the “λem maximum emission wavelength” value is 608 nm, the “λex largest excitation maxima” value was determined as 418 nm, the “Φon absolute quantum yield” value was 0.016 and the “fluorescence amplification rate (on/off)” value is 30. In data set [1] (Table 2), the “Φoff absolute quantum yield before the reaction with TCO” value was 0.005 and the “fluorescence signal amplification efficiency after the reaction with TCO” value is on record as “significantly reduced”. In data set [2] (Table 2, measured at 20° C.), the “K2 second rate constant value” came out at 15 m^−1s^−1.
As to `CCN(CC)c1ccc(-c2c3c(n4ccc(C(C)=O)cc24)C(=O)N(CCCNC(=O)CCC(=O)NCc2ccc(-c4nnc(C)nn4)cc2)C3)cc1` [Comparative Example 6, N^1-(3-(7-acetyl-9-(4-(diethylamino)phenyl)-3-oxo-1,3-dihydro-2H-pyrrolo[3,4-b]indolizin-2-yl)propyl)-N^4-(4-(6-methyl-1,2,4,5-tetrazin-3-yl)benzyl)succinimide], in data set [1] (Table 2), the “λem maximum emission wavelength” value is reported as 625 nm, the “λex largest excitation maxima” value is on record as 438 nm, the “Φon absolute quantum yield” value turned out to be 0.028 and the “fluorescence amplification rate (on/off)” value is 3. Moreover, in data set [1] (Table 2), the “Φoff absolute quantum yield before the reaction with TCO” value is recorded as 0.013 and the “fluorescence signal amplification efficiency after the reaction with TCO” value was “significantly reduced”. Further, the “K2 second rate constant value” in data set [2] (Table 2, measured at 20° C.) is 1.2 m^−1s^−1.
In the case of `Cc1nnc(-c2ccn3c4c(c(-c5ccccc5)c3c2)CN(CCCNC(=O)OC(C)(C)C)C4=O)nn1` [Example 1, tert-butyl (3-(7-(6-methyl-1,2,4,5-tetrazin-3-yl)-3-oxo-9-phenyl-1,3-dihydro-2H-pyrrolo[3,4-b]indolizin-2-yl)propyl)carbamate], in data set [1] (Table 1), the “λem maximum emission wavelength” value stood at 484 nm, the “λex largest excitation maxima” value came out at 375 nm, the “Φon absolute quantum yield” value stood at 0.683 and the “fluorescence amplification rate (on/off)” value is >1,000. Besides, the “Φoff absolute quantum yield before the reaction with TCO” value in data set [1] (Table 1) amounted to 0.002. In addition, in data set [1] (Table 2), the “λem maximum emission wavelength” value is on record as 484 nm, the “λex largest excitation maxima” value was 375 nm, the “Φon absolute quantum yield” value is reported as 0.683 and the “fluorescence amplification rate (on/off)” value is >1,000. In data set [1] (Table 2), the “Φoff absolute quantum yield before the reaction with TCO” value worked out at 0.002 and the “fluorescence signal amplification efficiency after the reaction with TCO” value is listed as “excellent”. Further, in data set [2] (Table 1, measured at 20° C.), the “K2 second rate constant value” is 24 m^−1s^−1. The “K2 second rate constant value” in data set [2] (Table 2, measured at 20° C.) amounted to 24 m^−1s^−1.
As for `COc1ccc(-c2c3c(n4ccc(-c5nnc(C)nn5)cc24)C(=O)N(CCCNC(=O)OC(C)(C)C)C3)cc1` [Example 2, tert-butyl (3-(9-(4-methoxyphenyl)-7-(6-methyl-1,2,4,5-tetrazin-3-yl)-3-oxo-1,3-dihydro-2H-pyrrolo[3,4-b]indolizin-2-yl)propyl)carbamate], in data set [1] (Table 1), the “λem maximum emission wavelength” value was 505 nm, the “λex largest excitation maxima” value was determined as 383 nm, the “Φon absolute quantum yield” value was 0.485 and the “fluorescence amplification rate (on/off)” value is recorded as >1,000. Besides, in data set [1] (Table 1), the “Φoff absolute quantum yield before the reaction with TCO” value stood at 0.001. The “K2 second rate constant value” in data set [2] (Table 1, measured at 20° C.) is recorded as 23 m^−1s^−1.
For `Cc1nnc(-c2ccn3c4c(c(-c5ccc(N)cc5)c3c2)CN(CCCNC(=O)OC(C)(C)C)C4=O)nn1` [Example 3, tert-butyl (3-(9-(4-aminophenyl)-7-(6-methyl-1,2,4,5-tetrazin-3-yl)-3-oxo-1,3-dihydro-2H-pyrrolo[3,4-b]indolizin-2-yl)propyl)carbamate], in data set [1] (Table 1), the “λem maximum emission wavelength” value amounted to 562 nm, the “λex largest excitation maxima” value was 390 nm, the “Φon absolute quantum yield” value was 0.064 and the “fluorescence amplification rate (on/off)” value is recorded as more than 600. Moreover, the “Φoff absolute quantum yield before the reaction with TCO” value in data set [1] (Table 1) was found to be 0.002. Further, the “K2 second rate constant value” in data set [2] (Table 1, measured at 20° C.) came to 22 m^−1s^−1.
On to `CCN(CC)c1ccc(-c2c3c(n4ccc(-c5nnc(C)nn5)cc24)C(=O)N(CCCNC(=O)OC(C)(C)C)C3)cc1` [Example 4, tert-butyl (3-(9-(4-(diethylamino)phenyl)-7-(6-methyl-1,2,4,5-tetrazin-3-yl)-3-oxo-1,3-dihydro-2H-pyrrolo[3,4-b]indolizin-2-yl)propyl)carbamate], for which, in data set [1] (Table 1), the “λem maximum emission wavelength” value worked out at 581 nm, the “λex largest excitation maxima” value is recorded as 401 nm, the “Φon absolute quantum yield” value is recorded as 0.045 and the “fluorescence amplification rate (on/off)” value is given as more than 600. For the same molecule, the “Φoff absolute quantum yield before the reaction with TCO” value in data set [1] (Table 1) is given as 0.001. Besides, in data set [1] (Table 2), the “λem maximum emission wavelength” value turned out to be 581 nm, the “λex largest excitation maxima” value is 401 nm, the “Φon absolute quantum yield” value was determined as 0.045 and the “fluorescence amplification rate (on/off)” value is given as more than 600. In data set [1] (Table 2), the “Φoff absolute quantum yield before the reaction with TCO” value came out at 0.001 and the “fluorescence signal amplification efficiency after the reaction with TCO” value is given as “excellent”. The “K2 second rate constant value” in data set [2] (Table 1, measured at 20° C.) was 22 m^−1s^−1. The “K2 second rate constant value” in data set [2] (Table 2, measured at 20° C.) was 22 m^−1s^−1.
